Values after ≈ are worked out from the molar mass of the structure shown.
Columns and labels:
A. Nidulans = assay: MIC, broth microdilution (NCCLS M27-A), A. nidulans; format: cell-based; conditions: 35° C., 48 hours; for MIC: Aspergillus nidulans
Experimental: (§1) Compounds of the invention were tested for antifungal susceptibility using broth microdilution assay established by the National Committee for Clinical Laboratory Standards, in NCCLS Document M27-A, which is hereby incorporated by reference. Minimum inhibitory concentrations (MICs) and minimum fungicidal concentrations (MFCs) were measured.
Filamentous fungi (Aspergillus spp.) is cultured on PDA plates in a 35° C. incubator. Inoculum of Aspergillus for susceptibility testing is prepared from plates incubated at 35° C. for 5 days. Colonies are covered with 5 ml of sterile 0.85% saline (8.5 g/liter NaCl) and gently rocked for 10-15 minutes. To dislodge the conidia, an automatic pipettor is used to gently wash over the colonies. The saline solution is removed from the plate and the heavy particles are allowed to settle for 3-5 minutes. The upper suspension is removed and vortexed for 15 sec. The turbidity of the solution is determined by measuring the absorbance in a spectrophotometer (Shimadzu UV-1201S UV-VIS Spectrophotometer) set at 600 nm. An absorbance value between 0.1 and 0.4 is required for an accurate reading.
The cell suspension is diluted with the appropriate medium (typically RPMI-1640) to OD600 =0.0004. The final suspension should contain approximately 3×10^3 cfu per ml (this is a 2×concentrationinoculum). Two 100 μl aliquots of this dilution are spread on SDA plates and incubated at 35° C. for 1-2 days to determine the precise number of colony forming units. An acceptable range for the inoculum (2×) is 1-5×10^3 cfu/ml (100-500 for 100 μl). Following two-fold dilution of the inoculum with compound, the final concentration of cells will be 0.5-2.5×10^3 per ml. The inoculum is kept at 4° C. and used within a few hours.
(§2) Stock solutions and concentrations tested will vary from compound to compound. In general, though, stock solutions of 12.8 mg/ml in DMSO (Sigma D-8779) are prepared. This will allow for a 128 μg/ml starting test concentration containing 1% DMSO. Stock solutions are stored at -20° C. and dilutions for antifungal testing are freshly prepared before each assay.
(§3) Stock solutions of Amphotericin B and Itraconazole are prepared at 1.6 mg/ml in DMSO. Amphotericin B is sold as a powder that is approximately 80% Amphotericin B. Stock solutions are made accordingly (2.0 mg of powder for a 1 ml solution of 1.6 mg/ml Amphotericin B).
(§4) Both of these (control and test compounds) represent 1:50 dilutions. For an assay with three fungal strains, 40 microliters of a stock solution are diluted to 2.0 ml with room temperature medium.
(§5) Antifungal susceptibility tests are setup in polystyrene, 96-well, flat bottom plates (Costar 9017). To every well in columns 2-12 is added 100 microliters of media. An electronic multichannel (12) pipettor with no tip on channel one is used. To every well in column one is added 200 microliters of diluted compound (32 μg/ml for Amphotericin B and Itraconazole controls, 256 μg/ml for test compounds, 100-fold dilution for natural product extracts). A manual multichannel (8) pipettor is then used to set up a series of 2-fold dilutions. 100 microliters is removed from each well of column one and mixed with 100 microliters in column 2. This is done successively (column two to column three etc.) to produce a set of 11 serial dilutions (column 12 is a drug free control).
(§6) To every well in two rows, 100 μl of inoculum (2×) of a single strain is added. To the final two rows on the plate (G & H), only media is added. Addition of inoculum is best accomplished using an electronic multichannel (12) pipettor. This setup (see below) creates a starting cell density of […] (100-500 per well) and drug concentration ranging from 16 μg/ml to […] for controls (Amphotericin B and Itraconazole), 128 μg/ml to 0.125 μg/ml for pure test compounds, and 200 to 204, 800-fold dilutions for natural product extracts.

S. serevisiae = assay: MIC, broth microdilution (NCCLS M27-A), S. cerevisiae; format: cell-based, Saccharomyces cerevisiae; conditions: Saccharomyces cerevisiae, 48 h, read-out: MIC S. serevisiae
Experimental: as §1
(§7) Yeasts (Saccharomyces cerevisiae and Candida albicans) are cultured on SDA plates in a 35° C. incubator. Strains on SDA plates are stored at 4° C. and used as working stock cultures.
(§8) Inoculum for susceptibility testing is prepared from fresh 24 hour cultures. 5-10 colonies are scraped from the plate and suspended in three milliliters of sterile 0.85% saline (8.5 g/liter NaCl). The cell density of the solution is determined by measuring the absorbance in a spectrophotometer (Shimadzu UV-1201S UV-VIS Spectrophotometer) set at 600 nm. An absorbance value between 0.1 and 0.4 is required for an accurate reading.
(§9) For Candida albicans strains ATCC 10231, 1.0 OD600 unit is approximately 10^7 cells per ml. For Saccharomyces cerevisiae strain CTY552, 1.0 OD600 unit is slightly less than 10^7 cells per ml. Cell suspensions are diluted with the appropriate medium (typically RPMI-1640) to OD600 =0.0003 for Candida and OD600 =0.0004 for Saccharomyces. The diluted suspension contains approximately 3×10^3 cells per ml (this is a 2×concentration inoculum). Two 100 μl aliquots of this dilution are spread on SDA plates and incubated at 35° C. for 1-2 days to determine the precise number of colony forming units. An acceptable range for the inoculum (2×) is 1-5×10^3 cfu/ml (100-500 for 100 μl). Following two-fold dilution of the inoculum with compound, the final concentration of cells will be 0.5-2.5×10^3 per ml. The inoculum is kept at 4° C. and used within a few hours.
as §2, §3
Stock solutions of control compounds (1.6 mg/ml, Amphotericin B or Itraconazole) are initially diluted in medium to a concentration of 32 μg/ml while stock solutions of test compounds (typically 12.8 mg/ml) are diluted to 256 μg/ml. Both of these (control and test compounds) represent 1:50 dilutions. For an assay with three fungal strains, 40 microliters of a stock solution are diluted to 2.0 ml with room temperature medium.
as §5
To every well in two rows, 100 μl of inoculum (2×) of a single strain is added. To the final two rows on the plate (G & H), only media is added. Addition of inoculum is best accomplished using an electronic multichannel (12) pipettor. […]

C. albicans = assay: MIC, broth microdilution (NCCLS M27-A), C. albicans; format: cell-based, Candida albicans; conditions: 48 hours, C. albicans ATCC 10231; for MIC: Candida albicans, ATCC10231, 35° C.
Experimental: as §1, §7, §8, §9, §2, §3, §4, §5, §6

Compound | MIC (A. Nidulans) | MIC (S. serevisiae) | MIC (C. albicans) | MIC A. Nidulans (A. Nidulans) | MIC C. albicans (C. albicans; 35° C.)
O=C(O)c1ccc(O)c(C=NNc2ccccc2Cl)c1 [(26), 5-carboxyl-2-hydroxybenzaldehyde-N-2-chlorophenyl hydrazone] | 0.5 µg/mL (≈ 1.72 µM) | 1 µg/mL (≈ 3.44 µM) | 2 µg/mL (≈ 6.88 µM) |  | 
Cc1cccc(NN=Cc2cc(C(=O)O)ccc2O)c1 [(27), 5-carboxyl-2-hydroxybenzaldehyde-N-3-methyl-phenyl hydrazone] | 0.25 µg/mL (≈ 0.925 µM) | 1 µg/mL (≈ 3.7 µM) | 1 µg/mL (≈ 3.7 µM) |  | 
COc1ccccc1NN=Cc1cc(C(=O)O)ccc1O [(28), 5-carboxyl-2-hydroxybenzaldehyde-N-2-methoxy-phenyl hydrazone] | 0.25 µg/mL (≈ 0.873 µM) | 1 µg/mL (≈ 3.49 µM) | 1 µg/mL (≈ 3.49 µM) |  | 
Cc1c(Cl)cccc1NN=Cc1cc(C(=O)O)ccc1O [(29), 5-carboxyl-2-hydroxybenzaldehyde-N-3-chloro-2-methyl-phenyl hydrazone] | 1 µg/mL (≈ 3.28 µM) | 1 µg/mL (≈ 3.28 µM) | 1 µg/mL (≈ 3.28 µM) |  | 
O=C(O)c1ccc(O)c(C=NNc2cccc(Cl)c2)c1 [(30), 5-carboxyl-2-hydroxybenzaldehyde-N-3-chloro-phenyl hydrazone] | 0.5 µg/mL (≈ 1.72 µM) | 1 µg/mL (≈ 3.44 µM) | 2 µg/mL (≈ 6.88 µM) |  | 
Oc1ccccc1CNNc1ccccc1 [(32)] | 0.125 µg/mL (≈ 0.583 µM) | 2 µg/mL (≈ 9.33 µM) | 1 µg/mL (≈ 4.67 µM) |  | 
COc1nccnc1NNCc1ccccc1O [(33)] | 4 µg/mL (≈ 16.2 µM) | 1 µg/mL (≈ 4.06 µM) | 2 µg/mL (≈ 8.12 µM) |  | 
FC(F)(F)c1cc(NC(=S)N/N=C/c2ccccn2)cc(C(F)(F)F)c1 [(37)] | 1 µg/mL (≈ 2.55 µM) | 1 µg/mL (≈ 2.55 µM) | 0.5 µg/mL (≈ 1.27 µM) |  | 
Fc1ccc(NC(=S)N/N=C/c2ccccn2)cc1 [(39)] | 4 µg/mL (≈ 14.6 µM) | 2 µg/mL (≈ 7.29 µM) | 2 µg/mL (≈ 7.29 µM) |  | 
Oc1ccccc1/C=N/NC(=S)Nc1cccc(F)c1 [(40)] | > 128 µg/mL | 2 µg/mL (≈ 6.91 µM) | 32 µg/mL (≈ 111 µM) |  | 
S=C(N/N=C/c1ccccn1)Nc1ccccc1 [(41)] | > 128 µg/mL | > 128 µg/mL | > 128 µg/mL |  | 
COC(=O)c1ccc(COc2ccc(/C=N/NC(=S)Nc3cccc(C(F)(F)F)c3)c(O)c2)cc1 [(43)] | 0.25 µg/mL (≈ 0.497 µM) | 0.5 µg/mL (≈ 0.993 µM) | 0.5 µg/mL (≈ 0.993 µM) |  | 
Oc1cc(OCc2ccccc2)ccc1/C=N/NC(=S)Nc1ccc(Cl)cc1 [(45), N-[(4-chloro-phenyl)]-2-[(E)-(4-benzyloxy-2-hydroxyphenyl)methylidene]-1-hydrazonecarbothiamide] | 0.5 µg/mL (≈ 1.21 µM) | 0.5 µg/mL (≈ 1.21 µM) | 1 µg/mL (≈ 2.43 µM) |  | 
COC(=O)c1ccc(COc2ccc(/C=N/NC(=S)Nc3ccc(Cl)cc3)c(O)c2)cc1 [(46)] | 0.25 µg/mL (≈ 0.532 µM) | 0.25 µg/mL (≈ 0.532 µM) | 1 µg/mL (≈ 2.13 µM) |  | 
N-[(4-dimethylamino)sulfonyl-N-piperidyl)phenyl)]-2-[(E)-(4-benzyloxy-2-hydroxyphenyl)methylidene]-1-hydrazonecarbothiamide [(52)] |  |  |  | > 64 µg/mL | > 64 µg/mL

From US6329378A, “Hydrazone, hydrazine and thiosemicarbazone derivatives as antifungal agents” (Anadys Pharmaceuticals, Inc., priority 2000, dated 2001)
